From patent US7348425B2, “Inhibitors of HCV replication” (Bristol-Myers Squibb Company, priority 2004, dated 2008)
Where two headings read alike, the source gives them in different places.

Assays:
[1] = target: T1, HCV NS5B RdRp genotype 1b (Hepatitis C virus genotype 1b, UniProt Q9WMX2); assay: Modified HCV NS5B RdRp enzyme assay (with preincubation); type: biochemical; settings: modified method (with preincubation)
T1 construct: The protein was expressed with an 18 amino acid C-terminal truncation to enhance the solubility; made in house; host or cells: E. coli BL21 (DE3), pET21a
T1 sequence (Q9WMX2 2420-2992): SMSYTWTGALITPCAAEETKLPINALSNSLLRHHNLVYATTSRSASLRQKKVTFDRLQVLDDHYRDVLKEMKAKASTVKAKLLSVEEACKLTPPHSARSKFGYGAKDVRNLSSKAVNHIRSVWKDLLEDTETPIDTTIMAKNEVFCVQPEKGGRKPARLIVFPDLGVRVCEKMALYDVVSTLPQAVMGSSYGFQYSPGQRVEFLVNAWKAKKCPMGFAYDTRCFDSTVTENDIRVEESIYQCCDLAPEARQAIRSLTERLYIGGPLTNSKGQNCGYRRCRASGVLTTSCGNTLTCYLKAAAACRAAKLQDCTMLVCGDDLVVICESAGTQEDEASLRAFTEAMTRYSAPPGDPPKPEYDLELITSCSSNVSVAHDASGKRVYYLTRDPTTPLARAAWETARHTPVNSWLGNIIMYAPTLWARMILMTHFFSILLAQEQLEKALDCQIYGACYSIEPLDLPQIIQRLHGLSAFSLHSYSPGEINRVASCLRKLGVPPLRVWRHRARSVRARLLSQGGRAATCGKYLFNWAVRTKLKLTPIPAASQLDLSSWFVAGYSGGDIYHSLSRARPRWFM
Method in brief: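 Seven-point IC50s were derived from SPA-based ³H-UTP incorporation after 4 h at 30 °C (Hepes pH 7.5, 2% DMSO). Compound was first mixed with 14 nM Δ18 NS5B genotype 1b enzyme. Then 0.2 nM polyA, 0.29 μM UTP and bead-bound oligo-dT12 (20 nM) were added.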

[2] = system: HCV replicon; assay: HCV replicon FRET assay; type: cell-based; settings: Hepatitis C virus
Method in brief: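 Replicon cells (± Renilla luciferase reporter) incubated with titrated compound at 37 °C; NS3 protease activity read by FRET peptide cleavage (20 uM EDANS/DABCYL substrate, 340/490 nm kinetic) or luciferase.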

Row | SMILES | IC50 [1] | EC50 ([2]; FRET assay, read-out: EC50) | EC50 [2]
1 | CN(C)S(=O)(=O)NC(=O)c1ccc2c(C3CCCCC3)c3n(c2c1)CC(=O)Nc1ccccc1-3 | 20 to 1000 nM | 10 to 1000 nM | 
2 | COC(=O)c1ccc2c(C3CCCCC3)c3n(c2c1)CC(C(=O)N1C[C@@H](C)O[C@@H](C)C1)=Cc1ccccc1-3 | > 1000 nM | 1000 to 10000 nM | 
3 | C[C@@H]1CN(C(=O)C2=Cc3ccccc3-c3c(C4CCCCC4)c4ccc(C(=O)O)cc4n3C2)C[C@H](C)O1 | 20 to 1000 nM | 10 to 1000 nM | 
4 | C[C@@H]1CN(C(=O)C2=Cc3ccccc3-c3c(C4CCCCC4)c4ccc(C(=O)NS(=O)(=O)N(C)C)cc4n3C2)C[C@H](C)O1 | 20 to 1000 nM | 10 to 1000 nM | 
5 | COC(=O)C1=Cc2ccncc2-c2c(C3CCCCC3)c3ccc(C(=O)OC)cc3n2C1 | > 1000 nM | 1000 to 10000 nM | 
6 | COC(=O)C1=Cc2cccnc2-c2c(C3CCCCC3)c3ccc(C(=O)OC)cc3n2C1 | > 1000 nM | 1000 to 10000 nM | 
7 | COC(=O)c1ccc2c(C3CCCCC3)c3n(c2c1)CC(C(=O)N1CCOCC1)=Cc1cccnc1-3 | > 1000 nM | 1000 to 10000 nM | 
8 | COC(=O)c1ccc2c(C3CCCCC3)c3n(c2c1)CC(C(=O)N1CCOCC1)=Cc1ccncc1-3 | > 1000 nM | 1000 to 10000 nM | 
9 | O=C(O)c1ccc2c(C3CCCCC3)c3n(c2c1)CC(C(=O)N1CCOCC1)=Cc1cccnc1-3 | 20 to 1000 nM | 10 to 1000 nM | 
10 | O=C(NS(=O)(=O)C1CC1)c1ccc2c(C3CCCCC3)c3n(c2c1)CC(C(=O)N1CCOCC1)=Cc1ccccc1-3 | 20 to 1000 nM | 10 to 1000 nM | 
11 | CS(=O)(=O)NC(=O)c1ccc2c(C3CCCCC3)c3n(c2c1)CC(C(=O)N1CCOCC1)=Cc1ccccc1-3 | 20 to 1000 nM | 10 to 1000 nM | 
12 | O=C(O)c1ccc2c(C3CCCCC3)c3n(c2c1)CC(C(=O)N1CCOCC1)Cc1cccnc1-3 (stereo not drawn) | 20 to 1000 nM | 1000 to 10000 nM | 
13 | CN(C)S(=O)(=O)NC(=O)c1ccc2c(C3CCCCC3)c3n(c2c1)CC(C(=O)N1CCOCC1)=Cc1cccnc1-3 | 20 to 1000 nM | 10 to 1000 nM | 
14 | COC(=O)c1ccc2c(C3CCCCC3)c3n(c2c1)CC(N1CCOCC1)Cc1ccccc1-3 (stereo not drawn) | > 1000 nM | 10 to 1000 nM | 
15 | O=C(O)c1ccc2c(C3CCCCC3)c3n(c2c1)CC(N1CCOCC1)Cc1ccccc1-3 (stereo not drawn) | 20 to 1000 nM | 10 to 1000 nM | 
16 | COC(=O)c1ccc2c(C3CCCCC3)c3n(c2c1)CC(C(=O)O)=Cc1cc(OC)ccc1-3 | 20 to 1000 nM | 1000 to 10000 nM | 
17 | COC(=O)c1ccc2c(C3CCCCC3)c3n(c2c1)CC(C(=O)N1CCOCC1)=Cc1cc(OC)ccc1-3 | 20 to 1000 nM | 10 to 1000 nM | 
18 | COc1ccc2c(c1)C=C(C(=O)N1CCOCC1)Cn1c-2c(C2CCCCC2)c2ccc(C(=O)O)cc21 | 20 to 1000 nM | 10 to 1000 nM | 
19 | CN(C)S(=O)(=O)NC(=O)c1ccc2c(C3CCCCC3)c3n(c2c1)CC(C(=O)N1CCOCC1)Cc1cccnc1-3 (stereo not drawn) | 20 to 1000 nM | 10 to 1000 nM | 
20 | O=C(O)c1ccc2c(C3CCCCC3)c3n(c2c1)CC(C(=O)N1CCOCC1)=Cc1ccncc1-3 | 20 to 1000 nM | 1000 to 10000 nM | 
21 | O=C(O)c1ccc2c(C3CCCCC3)c3n(c2c1)C=C(C(=O)N1CCOCC1)Cc1ccncc1-3 | > 1000 nM | > 10000 nM | 
22 | COc1ccc2c(c1)C=C(C(=O)N1CCOCC1)Cn1c-2c(C2CCCCC2)c2ccc(C(=O)NS(=O)(=O)N(C)C)cc21 | 20 to 1000 nM |  | 10 to 1000 nM
23 | CC(C)S(=O)(=O)NC(=O)c1ccc2c(C3CCCCC3)c3n(c2c1)CC(C(=O)N1CCOCC1)=Cc1ccccc1-3 | 20 to 1000 nM | 10 to 1000 nM | 
24 | CCS(=O)(=O)NC(=O)c1ccc2c(C3CCCCC3)c3n(c2c1)CC(C(=O)N1CCOCC1)=Cc1ccccc1-3 | 20 to 1000 nM | 10 to 1000 nM | 
25 | O=C(NS(=O)(=O)N1CCCC1)c1ccc2c(C3CCCCC3)c3n(c2c1)CC(C(=O)N1CCOCC1)=Cc1ccccc1-3 | 20 to 1000 nM | 10 to 1000 nM | 
26 | CC(C)(C)S(=O)(=O)NC(=O)c1ccc2c(C3CCCCC3)c3n(c2c1)CC(C(=O)N1CCOCC1)=Cc1ccccc1-3 | 20 to 1000 nM | 10 to 1000 nM | 
27 | CCS(=O)(=O)NC(=O)c1ccc2c(C3CCCCC3)c3n(c2c1)CC(C(=O)N1CCOCC1)Cc1ccccc1-3 (stereo not drawn) | 20 to 1000 nM | 10 to 1000 nM | 

Row | SMILES | IC50 [1] | EC50 ([2]; FRET assay, read-out: EC50) | EC50 [2]
28 | CC(C)S(=O)(=O)NC(=O)c1ccc2c(C3CCCCC3)c3n(c2c1)CC(C(=O)N1CCOCC1)Cc1ccccc1-3 (stereo not drawn) | 20 to 1000 nM | 10 to 1000 nM | 
29 | COc1ccc2c(c1)CC(C(=O)N1CCOCC1)Cn1c-2c(C2CCCCC2)c2ccc(C(=O)O)cc21 (stereo not drawn) | 20 to 1000 nM | 10 to 1000 nM | 
30 | O=C(NS(=O)(=O)c1ccccc1)c1ccc2c(C3CCCCC3)c3n(c2c1)CC(C(=O)N1CCOCC1)Cc1ccccc1-3 (stereo not drawn) | 20 to 1000 nM | 10 to 1000 nM | 
31 | COC(=O)C1=Cc2ccccc2-c2c(C3CCCCC3)c3ccc(C(=O)NS(=O)(=O)N(C)C)cc3n2C1 | 20 to 1000 nM | 10 to 1000 nM | 
32 | COC(=O)c1ccc2c(C3CCCCC3)c3n(c2c1)CC(C(=O)N1CCCOCC1)=Cc1ccccc1-3 | > 1000 nM | 1000 to 10000 nM | 
33 | O=C(O)c1ccc2c(C3CCCCC3)c3n(c2c1)CC(C(=O)N1CCCOCC1)=Cc1ccccc1-3 | 20 to 1000 nM | 10 to 1000 nM | 
34 | CN(C)S(=O)(=O)NC(=O)c1ccc2c(C3CCCCC3)c3n(c2c1)CC(C(=O)O)=Cc1ccccc1-3 | 20 to 1000 nM | > 10000 nM | 
35 | O=C(O)/C=C/c1ccc(NC(=O)C2(NC(=O)c3ccc4c(C5CCCCC5)c5n(c4c3)CCNc3ccccc3-5)CCCC2)cc1 | 20 to 1000 nM | 10 to 1000 nM | 
36 | O=C(O)c1ccc2c(C3CCCCC3)c3n(c2c1)CNc1ccccc1-3 | 20 to 1000 nM | 10 to 1000 nM | 
37 | COC(=O)c1ccc2c(C3CCCCC3)c3n(c2c1)CNc1ccccc1-3 | > 1000 nM | 10 to 1000 nM | 
38 | COC(=O)c1ccc2c(C3CCCCC3)c3n(c2c1)CCNc1ccccc1-3 | > 1000 nM | 10 to 1000 nM | 
39 | COC(=O)c1ccc2c(C3CCCCC3)c3n(c2c1)CC(C(=O)N1CCOCC1)Cc1ccncc1-3 (stereo not drawn) | > 1000 nM | 10 to 1000 nM | 
40 | O=C(O)c1ccc2c(C3CCCCC3)c3n(c2c1)CC(C(=O)N1CCOCC1)Cc1ccncc1-3 (stereo not drawn) | 20 to 1000 nM | 10 to 1000 nM | 
41 | CCN(C)S(=O)(=O)NC(=O)c1ccc2c(C3CCCCC3)c3n(c2c1)CC(C(=O)N1CCOCC1)=Cc1ccccc1-3 | 20 to 1000 nM | 10 to 1000 nM | 
42 | CCN(CC)S(=O)(=O)NC(=O)c1ccc2c(C3CCCCC3)c3n(c2c1)CC(C(=O)N1CCOCC1)=Cc1ccccc1-3 | 20 to 1000 nM | 10 to 1000 nM | 
43 | CC(C)NS(=O)(=O)NC(=O)c1ccc2c(C3CCCCC3)c3n(c2c1)CC(C(=O)N1CCOCC1)=Cc1ccccc1-3 | 20 to 1000 nM | 10 to 1000 nM | 
44 | O=C(NS(=O)(=O)N1CCCC1)c1ccc2c(C3CCCCC3)c3n(c2c1)CC(C(=O)N1CCOCC1)Cc1ccccc1-3 (stereo not drawn) | 20 to 1000 nM | 10 to 1000 nM | 
45 | CN(C)S(=O)(=O)NC(=O)c1ccc2c(C3CCCCC3)c3n(c2c1)CC(C(=O)N1CCNCC1)=Cc1ccccc1-3 | 20 to 1000 nM | 10 to 1000 nM | 
46 | CC(C)(C)OC(=O)N1CCn2c(c(C3CCCCC3)c3ccc(C(=O)O)cc32)-c2ccccc21 | 20 to 1000 nM | 1000 to 10000 nM | 
47 | CN(C)S(=O)(=O)NC(=O)c1ccc2c(C3CCCCC3)c3n(c2c1)CCN(C(=O)OC(C)(C)C)c1ccccc1-3 | 20 to 1000 nM | 10 to 1000 nM | 
48 | CN(C)S(=O)(=O)NC(=O)c1ccc2c(C3CCCCC3)c3n(c2c1)CCNc1ccccc1-3 | 20 to 1000 nM | 10 to 1000 nM | 
49 | COC(=O)c1ccc2c(C3CCCCC3)c3n(c2c1)CC(C(=O)O)=Cc1ccc(Cl)cc1-3 | > 1000 nM | 1000 to 10000 nM | 
50 | O=C(O)c1ccc2c(C3CCCCC3)c3n(c2c1)CC(C(=O)N1CCOCC1)=Cc1ccc(Cl)cc1-3 | 20 to 1000 nM | 1000 to 10000 nM | 
51 | CN(C)S(=O)(=O)NC(=O)c1ccc2c(C3CCCCC3)c3n(c2c1)CC(C(=O)N1CCOCC1)=Cc1ccc(Cl)cc1-3 | 20 to 1000 nM | 1000 to 10000 nM | 
52 | COC(=O)C1=C(C)c2ccccc2-c2c(C3CCCCC3)c3ccc(C(=O)OC)cc3n2C1 | > 1000 nM | 10 to 1000 nM | 
53 | CN(C)S(=O)(=O)NC(=O)c1ccc2c(C3CCCCC3)c3n(c2c1)CC(C(=O)N1CCOCC1)=Cc1ccncc1-3 | 20 to 1000 nM | 10 to 1000 nM | 
54 | COC(=O)c1ccc2c(C3CCCCC3)c3n(c2c1)CC(C(=O)O)=C(C)c1ccccc1-3 | > 1000 nM | 1000 to 10000 nM | 
